This passage reports IC50 results from the Kinase Knowledgebase extract (Sharma et al. 2016).

The experiment has as its target MAPK14 (UniProt Q16539). Description: Inhibition of MAPK14 Kinase Activity.

MAPK14, sequence (Q16539 whole entry, looked up): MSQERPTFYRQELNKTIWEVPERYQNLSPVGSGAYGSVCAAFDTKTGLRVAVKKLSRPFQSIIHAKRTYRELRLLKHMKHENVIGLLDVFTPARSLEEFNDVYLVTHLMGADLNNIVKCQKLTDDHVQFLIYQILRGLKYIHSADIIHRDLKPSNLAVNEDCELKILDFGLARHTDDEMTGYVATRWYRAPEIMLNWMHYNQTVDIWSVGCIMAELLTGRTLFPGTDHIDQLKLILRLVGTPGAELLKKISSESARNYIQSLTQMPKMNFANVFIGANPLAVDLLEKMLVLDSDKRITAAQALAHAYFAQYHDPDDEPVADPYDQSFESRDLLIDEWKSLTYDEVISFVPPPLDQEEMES

Compound `CCNC(=O)C(=O)c1cn(C)c2nc(OC)c(C(=O)N3C[C@H](C)N(Cc4ccc(F)cc4)C[C@H]3C)cc12` showed an IC50 of 20 nM.

For `COc1cc2[nH]ccc2nc1C(=O)N1C[C@H](C)N(Cc2ccc(F)cc2)C[C@H]1C`, the IC50 was 41 nM.

The compound `COc1nc2[nH]cc(C(=O)C(=O)N(C)C)c2cc1C(=O)N1CCC(Cc2ccc(F)cc2)CC1` showed an IC50 of 60 nM. This IC50 and that of the compound before are within 1.5-fold of each other.

Regarding `COc1nc2c(cc1C(=O)N1CCC(Cc3ccc(F)cc3)CC1)c(C(=O)C(=O)N1CCCC1)cn2C`, the IC50 was 35 nM.

`CCN(C)C(=O)C(=O)c1c[nH]c2nc(OC)c(C(=O)N3CCC(Cc4ccc(F)cc4)CC3)cc12`: the IC50 worked out at 63 nM.

In turn, `COc1nc2[nH]cc(C(=O)C(=O)NCCO)c2cc1C(=O)N1CCC(Cc2ccc(F)cc2)CC1` registered an IC50 of 56 nM.

`COc1nc2[nH]cc(C(=O)C(=O)N3CCCC3)c2cc1C(=O)N1CCC(Cc2ccc(F)cc2)CC1`: the IC50 was found to be 50 nM.

Turning to `COCC(=O)c1c[nH]c2nc(OC)c(C(=O)N3CCN(Cc4ccc(F)cc4)C[C@H]3C)cc12`, the IC50 came to 76 nM.

The compound `COCn1cc(C(=O)C(=O)N2CCCC2)c2cc(C(=O)N3CCC(Cc4ccc(F)cc4)CC3)c(OC)nc21` showed an IC50 of 79 nM.

Compound `COc1nc2[nH]cc(C(=O)C(=O)NN3CCCC3)c2cc1C(=O)N1CCC(Cc2ccc(F)cc2)CC1` displayed an IC50 of 39 nM.

Take `COc1nc2[nH]ccc2cc1C(=O)N1C[C@H](C)N(Cc2ccc(F)cc2)C[C@H]1C`: the IC50 was found to be 35 nM.

`COCn1cc(C(=O)C(=O)NC(C)C)c2cc(C(=O)N3C[C@H](C)N(Cc4ccc(F)cc4)C[C@H]3C)c(OC)nc21`: the IC50 was found to be 60 nM.

The compound `COc1nc2[nH]cc(C(=O)C(=O)N3CC[C@@H](O)C3)c2cc1C(=O)N1CCC(Cc2ccc(F)cc2)CC1` registered an IC50 of 32 nM. This IC50 is about 1.9-fold lower than that of the compound before.

`C[C@@H]1CN(Cc2ccc(F)cc2)[C@@H](C)CN1C(=O)c1nc2cc[nH]c2cc1Cl` gave an IC50 of 66 nM.

Regarding `COCn1ccc2cc(C(=O)N3CCC(Cc4ccc(F)cc4)CC3)c(OC)nc21`, the IC50 was 340 nM.

In the case of `CNC(=O)C(=O)c1c[nH]c2nc(OC)c(C(=O)N3CCC(Cc4ccc(F)cc4)CC3)cc12`, the IC50 was 44 nM.
